Assay results: paper PMC7998250, “Temperate Zone Plant Natural Products—A Novel Resource for Activity against Tropical Parasitic Diseases” (Pharmaceuticals, 2021)
Where two headings read alike, the source gives them in different places.

Columns and labels:
[1] = test system: L. mexicana axenic amastigotes; assay: Initial screen, L. mexicana axenic amastigotes, Alamar Blue; format: cell-based, Leishmania mexicana; conditions: for initial hit against L. mexicana: growth inhibited by ≥80%; for activity at 2 µM / inhibition of growth at 2 µM: Leishmania mexicana; for inhibition of growth at 2 µM: read-out: initial hit L.m
Method in brief: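 Purified temperate plant natural products from a commercial library (1 mg/mL in DMSO) were tested against Leishmania mexicana axenic amastigotes at a final 2 μM. Parasites were seeded at 1 × 10^6 cells/mL in 96-well plates containing 200 μL culture and incubated 72 h. Growth was measured by Alamar Blue and normalised to DMSO controls (1% v/v), with triplicates over two biological replicates (n = 6).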

[2] = test system: T. brucei bloodstream form; assay: Initial screen, T. brucei bloodstream form, Alamar Blue; format: cell-based, Trypanosoma brucei brucei; conditions: for activity at 2 µM / inhibition of growth at 2 µM: Trypanosoma brucei; for initial hit against T. brucei: growth reduced by ≥50%; for inhibition of growth at 2 µM: read-out: initial hit T.b
Method in brief: (§1)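 Bloodstream-form T. evansi Antat 3/3 and T. brucei Lister 427 were grown in HMI-11 with 10% FBS at 37 °C. Parasites were plated at 1×10^5 cells/mL with compound at 1 μM (T. evansi) or 2 μM (T. brucei) for 48 h, and growth was read by Alamar Blue relative to 1% DMSO controls (n = 6).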

[3] = test system: T. evansi bloodstream form; assay: Initial screen, T. evansi bloodstream form, Alamar Blue; format: cell-based, Trypanosoma evansi; conditions: for activity at 1 µM / inhibition of growth at 1 µM: Trypanosoma evansi; for inhibition of growth at 1 µM: read-out: initial hit T.e
Method in brief: as §1

[4] = test system: L. donovani axenic amastigotes; assay: Concentration-response EC50, L. donovani axenic amastigotes; format: cell-based; conditions: Leishmania donovani
Description: The four lanosterone-like sterols derived from the Noble Fir Abies procera (700022, 700107, 700136) and the Grand Fir Abies grandis (700240) were the only initial compounds taken forward for L. mexicana due to their nanomolar activity and apparent low cytotoxicity (Figure 3a). […] Understanding the impact of the ring-opened lactone head group in this compound compared to the other three warrants further analysis in exploring their structure-activity relationships. These four sterols were also tested for growth inhibitory activity against L. donovani axenic amastigotes. […] As Leishmania spp. amastigotes typically reside with macrophages, further cytotoxicity assays with these sterols were performed against an activated monocyte cell line (THP-1) (Figure 4b).

[5] = test system: T. brucei; assay: Concentration-response EC50, T. brucei; format: cell-based, Trypanosoma brucei brucei; conditions: 48 h
Description: (§2) Initial hits from the parasite panel screen were taken forward in log concentration versus normalised response assays to estimate the half maximal effective concentration (EC50) in hit species as well as the half maximal cytotoxic concentrations (CC50) in the human hepatoma cell line HepG2 as a preliminary test for selectivity. Using CC50/EC50 to define the selectivity index (SI), the selectivity for each compound in a defined species compared to a human cell line was estimated and compared to the EC50 (Figure 3).
(§3) EC50 values were determined by serial two-fold dilution of each compound in 96 well plates. Culture conditions and viability assays were as stated for the initial screen, with some exceptions. L. mexicana and L. donovani axenic amastigotes were seeded at 2 × 10^6 cell/s mL, T. brucei and T. evansi were seeded at 2 × 10^5 cells/mL. For cytotoxicity studies, HepG2 cells were seeded at 1 × 10^5 cells/mL, incubated for 48 h and viability was assessed using the Alamar Blue assay [66, 67]. […] Normalised growth and viability data (compared to untreated controls) were plotted against Log10 concentration to estimate EC50 in GraphPad (Prism v6).

[6] = test system: P. falciparum Dd2Luc; assay: Concentration-response EC50, P. falciparum Dd2Luc; format: cell-based, Plasmodium falciparum; conditions: 48 h
Description: as §2, §3

[7] = read-out: % growth L. mexicana, mean % growth compared to a normalised control with same concentration of DMSO solvent, initial screen
[8] = mean % growth compared to a normalised control with same concentration of DMSO solvent, initial screen, read-out: % growth T. b. brucei
[9] = mean % growth compared to a normalised control with same concentration of DMSO solvent, initial screen, read-out: % growth T. evansi
[10] = read-out: mean % growth, L. mexicana, initial screen, compared to a normalised control with same concentration of DMSO solvent
[11] = read-out: mean % growth, T. b. brucei, initial screen, compared to a normalised control with same concentration of DMSO solvent
[12] = read-out: mean % growth, T. evansi, initial screen, compared to a normalised control with same concentration of DMSO solvent
[13] = Trypanosoma brucei, read-out: T. brucei EC50, bloodstream form, 48 h
[14] = Plasmodium falciparum, read-out: P. falciparum Dd2Luc EC50, intraerythrocytic, 48 h
[15] = initial screen, compared to a normalised control with same concentration of DMSO solvent

Structure (SMILES) | initial hit against L. mexicana ([1]; 2 μM) | activity at 2 µM [1, 7] [%] | inhibition of growth at 2 µM ([1]; 2 μM, x = initial hit) [%] | activity at 2 µM [2, 8] [%] | activity at 1 µM [3, 9] [%] | EC50 [4] [nM] | activity at 2 µM [1, 10] [%] | initial hit against T. brucei ([2]; 2 μM) | inhibition of growth at 2 µM [2] [%] | inhibition of growth at 1 µM [3] [%] | EC50 [5, 13] [nM] | EC50 [6, 14] [nM] | other results
CC1=CC(O)(CC(C)C2(C)CC=C3C4=CCC5C(C)(C)C(=O)CCC5(C)C4CCC32C)OC1=O (stereo not shown) [Compound 700136] | initial hits | -0.4 | > 80 | 104 | 76.2 | 160 |  |  |  |  |  |  | 
C=C1C(=O)OC2CC(C)C3C=CC(=O)C3(C)C(OC(=O)C(C)C)C12 (stereo not shown) [Compound 701157] | initial hits |  |  |  |  |  | 0.07 | initial hits | > 50 | > 50 | 290 | 1800 | inhibition of growth at 2 µM [1]: > 80%; activity at 2 µM [2, 11]: -1.8%; activity at 1 µM [3, 12]: -4.3%
C=C1C(=O)OC2CC(C)C3C=CC(=O)C3(C)C(OC(C)=O)C12 (stereo not shown) [Compound 701155] | initial hits |  |  |  |  |  |  | initial hits |  | > 50 |  | 1600 | mean % growth, L. mexicana [1, 15]: -0.28%; mean % growth, T. b. brucei [2, 15]: -0.8%; mean % growth, T. evansi [3, 15]: 1.0%; EC50 ([5]; read-out: T. brucei EC50, bloodstream form): 150 nM
CC1=CC(O)(CC(C)C2(C)CC=C3C4=CCC5C(C)(C)C(O)CCC5(C)C4CCC32C)OC1=O (stereo not shown) [Compound 700022] | initial hits | 0.54 | > 80 | 53.5 | 70.8 | 140 |  |  |  |  |  |  | 
CC1=CC(O)(CC(C)C2(C)CCC3C4=CCC5C(C)(CCC(O)C5(C)C)C4=CCC32C)OC1=O (stereo not shown) [Compound 700107] | initial hits | 8.1 | > 80 | 85.2 | 66.5 | 260 |  |  |  |  |  |  | 
C/C(=C/C(=O)CC(C)C1CCC2(C)C3=CCC4C(C)(C)C(=O)CCC4(C)C3CCC12C)C(=O)O (stereo not shown) [Compound 700240] | initial hits | -10.1 | > 80 | 72.9 | 120 | 340 |  |  |  |  |  |  | 
C=C1C(=O)OC2CC(C)C3C=CC(=O)C3(C)C(OC(=O)C(C)CC)C12 (stereo not shown) [Compound 701158] | initial hits |  |  |  |  |  | -1.7 | initial hits | > 50 | > 50 | 310 | ~1000 | inhibition of growth at 2 µM [1]: > 80%; activity at 2 µM [2, 11]: -1.3%; activity at 1 µM [3, 12]: 0.454%; EC50 ([6]; read-out: P. falciparum Dd2Luc EC50, intraerythrocytic): 1600 nM
CC1OC(OC2C(OC(=O)C3CC[C@@H]4[C@H](C3)OC3(CC(OC(=O)/C=C/c5ccccc5)[C@@H](C)CO3)C43CO3)OC(CO)C(O)C2O)C(O)C(O)C1O (stereo partly shown) [Compound 700042] |  | 79.1 |  |  |  |  |  | initial hits | > 50 | > 50 | 410 | 280 | activity at 2 µM ([2]; read-out: % growth T. b. brucei, mean % growth compared to a normalised control with same concentration of DMSO solvent, initial screen): 1.6%; activity at 1 µM ([3]; read-out: % growth T. evansi, mean % growth compared to a normalised control with same concentration of DMSO solvent, initial screen): 40.2%
C=C1C(=O)OC2CC(C)C3C(OC)CC(=O)C3(C)C(OC(=O)C(C)CC)C12 (stereo not shown) [Compound 701159] | initial hits |  | > 80 |  |  |  | 1.5 | initial hits |  |  |  | 4500 | activity at 2 µM ([2]; initial screen, compared to a normalised control with same concentration of DMSO solvent, read-out: mean % growth, T. b. brucei): 13.7%; inhibition of growth at 2 µM ([2]; 2 μM, x = initial hit): > 50%; activity at 1 µM ([3]; initial screen, compared to a normalised control with same concentration of DMSO solvent, read-out: mean % growth, T. evansi): 82%; EC50 ([5]; Trypanosoma brucei, bloodstream form, read-out: T. brucei EC50): 390 nM
